Experimental data reported in paper PMC8950173 (Pharmaceuticals, 2022).

Legend:
[1] = biological target: human recombinant HDAC3/NcoR2 (Homo sapiens, UniProt O15379); assay: Inhibition assay HDAC3 (fluorogenic substrate ZMAL); type: biochemical; conditions: HDAC1 over HDAC3, from IC50 values
Description: In vitro inhibitory activities against HDAC1−3 and HDAC6 were measured as previously published with minor modifications. […] Subsequently, 50 µL trypsin solution (0.4 mg/mL trypsin in buffer: 50 mM Tris−HCl, pH = 8.0, 100 mM NaCl) was added, followed by additional 30 min of incubation at 37 °C. […] All compounds were tested at least twice in duplicates.

[2] = Lipophilicity logD7.4, shake-flask method n-octanol/PBS; type: physicochemical; conditions: n-octanol/PBS pH 7.4, room temperature, n = 8
Description: (§1) Radiochemical stability of [^18F]BA3 was investigated in 0.9% NaCl solution (containing 10% EtOH) and in n-octanol at room temperature for 2 h. Samples were analysed by radio-RP-HPLC (see quality control). The LogD7.4 value of [^18F]BA3 was experimentally determined in n-octanol/phosphate-buffered saline (PBS, pH = 7.4) at room temperature by the shake-flask method as described previously. Briefly, small tracer amounts (~800 kBq) were added to a mixture of 3 mL n-octanol and 3 mL PBS. After shaking for 20 min, the samples were centrifuged (10,000 rpm, 5 min) and 1 mL aliquots of the organic as well as aqueous layer were taken and measured in a gamma counter (1480 WIZARD, Perkin Elmer, Turku, Finland). Another 1 mL aliquot of the organic layer was mixed with 2 mL n-octanol and 3 mL PBS and subjected to the same procedure until constant partition coefficient values had been obtained. The measurement was performed twice in quadruplicate.

Radiochemical stability = type: physicochemical; conditions: room temperature, more than two hours
Description: as §1

[3] = biological target: T1, P-glycoprotein (P-gp) efflux transporter (Mus musculus, UniProt P21447); assay: P-gp efflux transporter PET study with cyclosporine A pre-treatment; type: in vivo; conditions: for initial brain uptake: n = 2
T1 construct: from tissue; host or cells: living CD-1 mice, brain / blood-brain barrier
T1 sequence (P21447 whole entry): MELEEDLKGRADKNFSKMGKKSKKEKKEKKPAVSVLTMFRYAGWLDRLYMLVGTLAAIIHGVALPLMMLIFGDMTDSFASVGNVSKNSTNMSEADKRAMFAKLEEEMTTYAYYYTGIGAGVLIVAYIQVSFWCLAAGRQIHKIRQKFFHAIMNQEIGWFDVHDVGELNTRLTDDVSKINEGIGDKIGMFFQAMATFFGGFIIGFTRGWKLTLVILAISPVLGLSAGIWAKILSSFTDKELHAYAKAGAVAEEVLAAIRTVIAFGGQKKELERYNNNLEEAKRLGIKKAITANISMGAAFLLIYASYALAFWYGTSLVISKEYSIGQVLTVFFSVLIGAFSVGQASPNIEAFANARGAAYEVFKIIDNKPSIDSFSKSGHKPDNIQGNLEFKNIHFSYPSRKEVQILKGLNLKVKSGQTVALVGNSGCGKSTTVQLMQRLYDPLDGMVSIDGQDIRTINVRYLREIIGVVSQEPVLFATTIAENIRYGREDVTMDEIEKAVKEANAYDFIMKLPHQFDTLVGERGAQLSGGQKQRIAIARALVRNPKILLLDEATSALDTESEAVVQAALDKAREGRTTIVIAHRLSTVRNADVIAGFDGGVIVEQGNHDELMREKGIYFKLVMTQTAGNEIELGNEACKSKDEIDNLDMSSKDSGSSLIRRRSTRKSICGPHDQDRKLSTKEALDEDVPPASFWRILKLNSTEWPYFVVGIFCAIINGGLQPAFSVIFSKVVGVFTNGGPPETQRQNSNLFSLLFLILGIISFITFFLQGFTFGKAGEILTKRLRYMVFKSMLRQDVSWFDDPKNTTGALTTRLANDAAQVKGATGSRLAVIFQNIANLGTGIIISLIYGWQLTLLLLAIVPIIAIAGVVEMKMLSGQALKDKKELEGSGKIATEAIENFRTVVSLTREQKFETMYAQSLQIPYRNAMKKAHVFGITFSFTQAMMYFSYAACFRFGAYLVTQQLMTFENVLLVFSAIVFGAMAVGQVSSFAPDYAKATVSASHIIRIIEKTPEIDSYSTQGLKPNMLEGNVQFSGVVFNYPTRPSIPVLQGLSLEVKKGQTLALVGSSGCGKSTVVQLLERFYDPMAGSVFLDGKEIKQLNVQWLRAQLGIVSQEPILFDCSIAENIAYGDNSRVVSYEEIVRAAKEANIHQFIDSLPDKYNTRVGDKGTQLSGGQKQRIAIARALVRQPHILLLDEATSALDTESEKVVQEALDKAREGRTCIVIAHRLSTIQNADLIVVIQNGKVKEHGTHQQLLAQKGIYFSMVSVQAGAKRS
Description: (§2) For the time of the experiments, female CD-1 mice (n = 6; 8–15 weeks; 29–43 g) were kept in a dedicated climatic chamber with free access to water and food under a 12:12 h dark:light cycle at a constant temperature (24 °C). The animals were anaesthetized (Anaesthesia Unit U-410, agntho’s, Lidingö, Sweden) with isoflurane (2.0%, 300 mL/min) delivered in a 60% oxygen/40% air mixture (Gas Blender 100 Series, MCQ instruments, Rome, Italy) and their body temperature maintained at 37 °C with a thermal bed system. For baseline studies [^18F]BA3 was injected into the tail vein (n = 2; 6.0 ± 0.6 MBq in 150 µL isotonic saline; 9.2 ± 0.7 nmol/kg; Am: 21 GBq/μmol, EOS) followed by a dynamic 60 min PET/MR scan (Mediso nanoScan®, Budapest, Hungary). Permeability-glycoprotein efflux transporter studies consisted in pre-treatment via i.v. injection of cyclosporine A (50 mg/kg in NaCl/DMSO/kolliphor, 7:1:2, v/v; n = 2) or of vehicle (NaCl/DMSO/kolliphor, 7:1:2, v/v; n = 2) 30 min prior to [^18F]BA3 (6.0 ± 0.9 MBq; 4.9 ± 0.7 nmol/kg; Am: 32–37 GBq/μmol, EOS). Each PET image was corrected for random coincidences, dead time, scatter and attenuation (AC), based on a whole body (WB) MR scan. The reconstruction parameters for the list mode data were 3D-ordered subset expectation maximization (OSEM), 4 iterations, 6 subsets, energy window: 400–600 keV, coincidence mode: 1–5, ring difference: 81. The mice were positioned prone in a special mouse bed (heated up to 37 °C), with the head fixed to a mouth piece for the anaesthetic gas supply with isoflurane in 40% air and 60% oxygen. The PET data were collected by a continuous WB scan during the entire investigation. Following the 60 min PET scan a T1 weighted WB gradient echo sequence (TR/TE: 20/6.4 ms, NEX: 1, FA: 25, FOV: 64 × 64 mm, Matrix: 128 × 128, STh: 0.5 mm) was performed for AC and anatomical orientation. […]. The respective brain regions were identified using the mouse brain atlas template Ma-Benveniste-Mirrione-FDG. The activity data are expressed as mean SUV of the overall ROI.

[4] = Whole-body biodistribution derived from PET imaging; type: in vivo
Description: as §2

Chain of human recombinant HDAC3/NcoR2 (O15379 whole entry): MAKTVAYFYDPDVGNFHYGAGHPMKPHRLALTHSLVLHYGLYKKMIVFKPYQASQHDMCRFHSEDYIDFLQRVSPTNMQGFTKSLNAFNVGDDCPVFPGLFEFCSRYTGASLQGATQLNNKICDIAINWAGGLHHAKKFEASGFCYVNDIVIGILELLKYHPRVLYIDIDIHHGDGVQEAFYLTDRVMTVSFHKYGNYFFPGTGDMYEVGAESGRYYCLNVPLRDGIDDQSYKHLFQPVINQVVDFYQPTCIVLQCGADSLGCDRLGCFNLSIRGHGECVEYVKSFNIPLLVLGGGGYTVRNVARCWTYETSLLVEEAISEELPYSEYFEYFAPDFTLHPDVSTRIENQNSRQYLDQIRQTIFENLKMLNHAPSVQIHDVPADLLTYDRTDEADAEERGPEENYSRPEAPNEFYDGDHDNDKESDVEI
Chain of human recombinant HDAC3/NcoR2 (Q9Y618 395-489 partner limits assumed): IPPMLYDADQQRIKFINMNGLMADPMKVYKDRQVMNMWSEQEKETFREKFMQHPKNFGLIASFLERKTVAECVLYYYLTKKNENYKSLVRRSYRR

## CC([18F])C(=O)NCc1ccc(C(=O)Nc2cc(-c3ccsc3)ccc2N)cc1 (centres unmarked) [[^18F]BA3]
[1]
  specificity ratio (HDAC1/HDAC3): > 230
[2]
  logD: 1.75 ± 0.16
Radiochemical stability; in n-octanol
  radiochemical purity (stability): > 99%
Radiochemical stability; in saline formulation containing 10% EtOH
  radiochemical purity (stability): > 99%
[3]; concluded from cyclosporine A pre-administration
  P-gp substrate status: substrate of P-gp
[3]; cyclosporine A vs vehicle pre-administration
  increase of initial brain uptake by cyclosporine A: about factor two
[3]; pre-administration of cyclosporine A 50 mg/kg i.v. 30 min before tracer
  initial brain uptake: 0.42 SUV
[3]; pre-administration of vehicle 30 min before tracer
  initial brain uptake: 0.18 SUV
[4]; blood, 5 min
  activity in blood circulation SUV5 min: 1.47 SUV
[4]; blood, 60 min
  activity in blood circulation SUV60 min: 1.10 SUV
[4]; spleen, kidney, muscle, liver and small intestines, 5 min
  initial uptake SUV5 min: < 4 SUV
